In patent publication US9416128B2, “Fused heterocyclic compounds as ion channel modulators” (Gilead Sciences, Inc., priority 2013, dated 2016):
Like-named read-outs stand apart in the source and are kept apart here.

Experiments:
hNaV1.1 (SCN1A) = hNaV1.1 (SCN1A) (Homo sapiens, UniProt P35498); assay: Use-dependent inhibition of the CNS NaV1.1 sodium channel; type: cell-based; conditions: % inhibition, 25 Hz; for inhibition at 1 µM: use-dependent block at 1 uM, read-out: Nav1.1 UDB 25 Hz 1 uM; for inhibition at 10 µM: use-dependent block at 10 uM, read-out: Nav1.1 UDB 25 Hz 10 uM
Outline: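 Whole-cell automated patch clamp on HEK-293 cells stably expressing hNaV1.1, 23-25° C., CsF internal solution. Peak current at pulse 20 of a 25 Hz train (0 mV, 20 ms) from −120 mV, normalized to pulse 1; percentage inhibition versus compound-free condition.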

[1] = biological target: wild-type human cardiac sodium channel, hNaV 1.5 (Peak INa) (Homo sapiens, UniProt Q14524); assay: Peak INa screening assay (tonic block and use-dependent block); type: cell-based
Description: The assay uses an HEK293 (human embryonic kidney) cell line heterologously expressing the wild-type human cardiac sodium channel, hNaV 1.5, purchased from Millipore (Billerica, Mass.). No beta subunits were coexpressed with the Na channel alpha subunit. Cells are maintained with standard tissue culture procedures and stable channel expression is maintained with 400 μg/mL Geneticin in the culture medium. […] Currents are digitized at 25 kHz and low-pass filtered at 5 kHz and stored in the Sophion Bioscience Oracle database (Sophion Bioscience, Copenhagen, Denmark). Analysis is performed using QPatch Assay software and data are compiled in Excel 2010 (Microsoft, Seattle, Wash., U.S.A.). Compound stocks are routinely made by the Gilead Sample Bank in vials to 10 mM in dimethyl sulfoxide (DMSO). In some cases, when compounds are not soluble in DMSO, they are made in 100% ethanol. Stocks are sonicated as necessary. The extracellular solution for screening Late INa is composed of: 140 mM NaCl, 4 mM KCl, 1.8 mM CaCl2, 1 mM MgCl2, 10 mM HEPES and 10 mM Dextrose with pH adjusted to 7.35 using NaOH. The intracellular solution contains: 105 mM CsF, 20 mM CsCl, 10 NaF, 2 mM EGTA, 10 mM HEPES and 10 mM Dextrose with pH adjusted to 7.35 with CsOH. Compounds are diluted in extracellular solution using a MicroLab Nimbus (Hamilton Robotics, Reno, Nev.) to between 0.3 and 3 μM in glass vials and transferred to glass well plates before robotic addition to the cells. […] It is contemplated that the compounds of Formula I avoid significant block of peak INa. […] The intracellular solution used for the Peak INa assay is the same as outlined for the Late INa assay (see above). After establishing the whole cell recording configuration, channels were stimulated to open with low frequency (0.1 Hz) for so that the recording can be monitored and the extent to which the recording has stabilized can be assessed. The test compound is then applied at 1 or 3 μM was added 2 times at 60 second intervals. After the second compound addition, a 200 second wait period was imposed to allow for equilibration. Voltage protocols for TB and UDB are were performed in the absence and presence of compound and TB and UDB are calculated with respect to the compound free condition. Both TB and UDB were analyzed by incorporating rundown correction for the peak INa.

[2] = % inhibition, use-dependent block of peak INa at 3 uM, 3 Hz, pulse 50, read-out: Nav1.5 Peak UDB 3 Hz 3 uM
[3] = read-out: Nav1.5 Peak TB 3 uM, % inhibition, tonic block of peak INa at 3 uM, 0.1 Hz, holding -100 mV

wild-type human cardiac sodium channel, hNaV 1.5 (Peak INa), sequence (Q14524 whole entry): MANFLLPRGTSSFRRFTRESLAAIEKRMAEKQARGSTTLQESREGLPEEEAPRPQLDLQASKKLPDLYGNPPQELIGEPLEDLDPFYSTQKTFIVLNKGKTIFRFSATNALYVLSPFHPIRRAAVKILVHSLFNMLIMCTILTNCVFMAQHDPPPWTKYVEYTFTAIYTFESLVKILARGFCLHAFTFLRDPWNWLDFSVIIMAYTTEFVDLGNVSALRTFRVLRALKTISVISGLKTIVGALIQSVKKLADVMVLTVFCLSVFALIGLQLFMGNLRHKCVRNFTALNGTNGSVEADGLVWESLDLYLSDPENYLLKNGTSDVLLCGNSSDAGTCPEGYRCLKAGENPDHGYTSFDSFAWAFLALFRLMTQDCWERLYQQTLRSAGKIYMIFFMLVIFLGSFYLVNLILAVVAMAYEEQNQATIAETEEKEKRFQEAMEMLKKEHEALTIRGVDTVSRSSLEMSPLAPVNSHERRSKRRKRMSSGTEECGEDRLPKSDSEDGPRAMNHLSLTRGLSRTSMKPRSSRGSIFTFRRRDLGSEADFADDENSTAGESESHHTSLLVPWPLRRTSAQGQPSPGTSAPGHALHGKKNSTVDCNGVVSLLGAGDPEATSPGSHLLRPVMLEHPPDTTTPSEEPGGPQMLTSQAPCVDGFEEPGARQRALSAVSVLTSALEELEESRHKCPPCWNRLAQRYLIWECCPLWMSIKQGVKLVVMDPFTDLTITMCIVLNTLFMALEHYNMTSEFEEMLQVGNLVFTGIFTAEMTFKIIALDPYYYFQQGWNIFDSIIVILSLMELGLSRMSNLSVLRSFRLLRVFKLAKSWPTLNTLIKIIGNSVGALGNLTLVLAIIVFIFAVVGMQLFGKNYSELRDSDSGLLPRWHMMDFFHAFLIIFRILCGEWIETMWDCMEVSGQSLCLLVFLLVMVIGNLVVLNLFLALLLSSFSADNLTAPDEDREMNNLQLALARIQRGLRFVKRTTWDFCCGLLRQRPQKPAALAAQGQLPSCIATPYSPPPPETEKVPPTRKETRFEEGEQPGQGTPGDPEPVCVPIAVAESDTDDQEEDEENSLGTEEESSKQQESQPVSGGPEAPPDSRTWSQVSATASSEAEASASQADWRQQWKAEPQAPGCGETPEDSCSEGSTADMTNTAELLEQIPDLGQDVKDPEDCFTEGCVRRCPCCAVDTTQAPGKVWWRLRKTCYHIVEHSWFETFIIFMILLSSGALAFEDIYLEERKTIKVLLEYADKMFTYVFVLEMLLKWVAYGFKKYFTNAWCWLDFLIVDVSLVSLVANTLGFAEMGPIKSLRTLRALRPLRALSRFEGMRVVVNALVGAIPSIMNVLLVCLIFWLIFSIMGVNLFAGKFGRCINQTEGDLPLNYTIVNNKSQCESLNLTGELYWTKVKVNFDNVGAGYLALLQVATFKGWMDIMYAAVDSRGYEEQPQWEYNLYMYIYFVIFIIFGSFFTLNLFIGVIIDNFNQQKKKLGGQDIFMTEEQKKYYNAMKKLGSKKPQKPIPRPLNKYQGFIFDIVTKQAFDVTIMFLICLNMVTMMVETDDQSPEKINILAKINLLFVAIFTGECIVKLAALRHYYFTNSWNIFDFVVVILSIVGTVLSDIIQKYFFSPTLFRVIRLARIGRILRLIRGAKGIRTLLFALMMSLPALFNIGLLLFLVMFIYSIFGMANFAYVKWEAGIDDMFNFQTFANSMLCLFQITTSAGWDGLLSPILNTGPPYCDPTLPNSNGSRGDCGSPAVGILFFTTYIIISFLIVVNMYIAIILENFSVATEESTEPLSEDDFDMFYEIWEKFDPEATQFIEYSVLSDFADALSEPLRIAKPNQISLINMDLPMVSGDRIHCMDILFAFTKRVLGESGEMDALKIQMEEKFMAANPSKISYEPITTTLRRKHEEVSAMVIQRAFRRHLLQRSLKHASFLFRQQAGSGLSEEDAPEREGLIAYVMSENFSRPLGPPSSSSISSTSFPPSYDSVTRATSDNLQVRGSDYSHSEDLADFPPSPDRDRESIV

Structure (SMILES)	inhibition at 1 µM (hNaV1.1 (SCN1A)) [%]	inhibition at 10 µM (hNaV1.1 (SCN1A)) [%]	inhibition at 3 µM [1, 2] [%]	inhibition at 3 µM [1, 3] [%]
Cc1cc(C(F)(F)F)ccc1-c1ccc2c(c1)CN(Cc1ncccn1)C(=O)O2 [Example 37, 6-(2-methyl-4-(trifluoromethyl)phenyl)-3-(pyrimidin-2-ylmethyl)-3,4-dihydro-2H-benzo[e][1,3]oxazin-2-one]	7.3	67.7	< 5	14
O=C1Oc2ccc(-c3ccc(C4(C(F)(F)F)CC4)cc3)cc2CN1Cc1ncccn1 [Example 38, 3-(pyrimidin-2-ylmethyl)-6-(4-(1-(trifluoromethyl)cyclopropyl)phenyl)-3,4-dihydro-2H-benzo[e][1,3]oxazin-2-one]	49	78.1	< 5	55.6
CC(C)Oc1cc(OC(F)(F)F)ccc1-c1ccc2c(c1)CN(Cc1ncccn1)C(=O)O2 [Example 39, 6-(2-isopropoxy-4-(trifluoromethoxy)phenyl)-3-(pyrimidin-2-ylmethyl)-3,4-dihydro-2H-benzo[e][1,3]oxazin-2-one]	39.1	73.4	5.9	17.5
CCOc1cc(OC(F)(F)F)ccc1-c1ccc2c(c1)CN(Cc1ncccn1)C(=O)O2 [Example 40, 6-(2-ethoxy-4-(trifluoromethoxy)phenyl)-3-(pyrimidin-2-ylmethyl)-3,4-dihydro-2H-benzo[e][1,3]oxazin-2-one]	22.6	71.3	10.2	22.4
Cc1cnc(CN2Cc3cc(-c4ccc(C(F)(F)F)cc4F)ccc3OC2=O)nc1 [Example 41, 6-(2-fluoro-4-(trifluoromethyl)phenyl)-3-((5-methylpyrimidin-2-yl)methyl)-3,4-dihydro-2H-benzo[e][1,3]oxazin-2-one]	< 5	29	< 5	17.5
COc1cc(C(F)(F)F)ccc1-c1ccc2c(c1)CN(Cc1ncc(C)cn1)C(=O)O2 [Example 42, 6-(2-methoxy-4-(trifluoromethyl)phenyl)-3-((5-methylpyrimidin-2-yl)methyl)-3,4-dihydro-2H-benzo[e][1,3]oxazin-2-one]	11.5	47.9	< 5	12.7
Cc1cnc(CN2Cc3cc(-c4ccc(C(F)(F)F)cc4C)ccc3OC2=O)nc1 [Example 43, 6-(2-methyl-4-(trifluoromethyl)phenyl)-3-((5-methylpyrimidin-2-yl)methyl)-3,4-dihydro-2H-benzo[e][1,3]oxazin-2-one]	< 5	51.4	< 5	19.2
COc1cc(C(F)(F)F)ccc1-c1ccc2c(c1)CN(Cc1cccc(C)n1)C(=O)O2 [Example 44, 6-(2-methoxy-4-(trifluoromethyl)phenyl)-3-((6-methylpyridin-2-yl)methyl)-3,4-dihydro-2H-benzo[e][1,3]oxazin-2-one]	25	84.5	< 5	21.6
Cc1cccc(CN2Cc3cc(-c4ccc(C(F)(F)F)cc4F)ccc3OC2=O)n1 [Example 45, 6-(2-fluoro-4-(trifluoromethyl)phenyl)-3-((6-methylpyridin-2-yl)methyl)-3,4-dihydro-2H-benzo[e][1,3]oxazin-2-one]	19.9	72.8	< 5	33.5
COc1cc(OC(F)(F)F)ccc1-c1ccc2c(c1)CN(Cc1cccc(C)n1)C(=O)O2 [Example 46, 6-(2-methoxy-4-(trifluoromethoxy)phenyl)-3-((6-methylpyridin-2-yl)methyl)-3,4-dihydro-2H-benzo[e][1,3]oxazin-2-one]	19	78.6	< 5	34.7
Cc1cccc(CN2Cc3cc(-c4ccc(OC(F)(F)F)cc4F)ccc3OC2=O)n1 [Example 47, 6-(2-fluoro-4-(trifluoromethoxy)phenyl)-3-((6-methylpyridin-2-yl)methyl)-3,4-dihydro-2H-benzo[e][1,3]oxazin-2-one]	< 5	69.2	< 5	44.3
CC1c2cc(-c3ccc(OC(F)(F)F)cc3)ccc2OC(=O)N1Cc1ncccn1 (stereo not drawn) [Example 48, 4-methyl-3-(pyrimidin-2-ylmethyl)-6-(4-(trifluoromethoxy)phenyl)-3,4-dihydro-2H-benzo[e][1,3]oxazin-2-one]	32.5	73.3		12.1
CC1c2cc(-c3cccc(OC(F)(F)F)c3)ccc2OC(=O)N1Cc1ncccn1 (stereo not drawn) [Example 50, 4-methyl-3-(pyrimidin-2-ylmethyl)-6-(3-(trifluoromethoxy)phenyl)-3,4-dihydro-2H-benzo[e][1,3]oxazin-2-one]	10.1	71.2	12.1	17.7
Cc1csc(CN2Cc3cc(-c4ccc(OC(F)(F)F)cc4)ccc3OC2=O)n1 [Example 52, 3-((4-methylthiazol-2-yl)methyl)-6-(4-(trifluoromethoxy)phenyl)-3,4-dihydro-2H-benzo[e][1,3]oxazin-2-one]	32.9	57.6	< 5	11.9
Cc1csc(CN2Cc3cc(-c4ccc(OC(F)(F)F)c(F)c4)ccc3OC2=O)n1 [Example 53, 6-(3-fluoro-4-(trifluoromethoxy)phenyl)-3-((4-methylthiazol-2-yl)methyl)-3,4-dihydro-2H-benzo[e][1,3]oxazin-2-one]	52.7	87.6	< 5	19.8
Cc1csc(CN2Cc3cc(-c4ccc(OC(F)(F)F)c(C)c4)ccc3OC2=O)n1 [Example 54, 6-(3-methyl-4-(trifluoromethoxy)phenyl)-3-((4-methylthiazol-2-yl)methyl)-3,4-dihydro-2H-benzo[e][1,3]oxazin-2-one]	< 5	36.7	< 5	11.2
Cc1csc(CN2Cc3cc(-c4ccc(OC(F)(F)F)cc4F)ccc3OC2=O)n1 [Example 55, 6-(2-fluoro-4-(trifluoromethoxy)phenyl)-3-((4-methylthiazol-2-yl)methyl)-3,4-dihydro-2H-benzo[e][1,3]oxazin-2-one]	< 5	55	< 5	16.1
Cc1csc(CN2Cc3cc(-c4ccc(Cl)c(Cl)c4)ccc3OC2=O)n1 [Example 56, 6-(3,4-dichlorophenyl)-3-((4-methylthiazol-2-yl)methyl)-3,4-dihydro-2H-benzo[e][1,3]oxazin-2-one]	< 5	10.7	< 5	
Cc1csc(CN2Cc3cc(-c4ccc(OC(F)(F)F)cc4Cl)ccc3OC2=O)n1 [Example 57, 6-(2-chloro-4-(trifluoromethoxy)phenyl)-3-((4-methylthiazol-2-yl)methyl)-3,4-dihydro-2H-benzo[e][1,3]oxazin-2-one]	< 5	48.8	< 5	
COc1cc(OC(F)(F)F)ccc1-c1ccc2c(c1)CN(Cc1nc(C)cs1)C(=O)O2 [Example 58, 6-(2-methoxy-4-(trifluoromethoxy)phenyl)-3-((4-methylthiazol-2-yl)methyl)-3,4-dihydro-2H-benzo[e][1,3]oxazin-2-one]	7.8	68.7	< 5	7.9
Cc1csc(CN2Cc3cc(-c4ccc(Cl)c(F)c4)ccc3OC2=O)n1 [Example 59, 6-(4-chloro-3-fluorophenyl)-3-((4-methylthiazol-2-yl)methyl)-3,4-dihydro-2H-benzo[e][1,3]oxazin-2-one]	20.7	39.9	< 5	13
